Laboratory results taken from patent US6180341A, “In vitro scanning saturation mutagenesis of proteins” (priority 1998, dated 2001).
Read-outs that look alike come from different tables or passages of the source.

How the values were obtained:
[1] = biological target: anti-digoxin 26-10 murine monoclonal antibody; conditions: literature (Schildbach et al., 1993); cited from earlier work
[2] = system: anti-digoxin single chain Fv scFv(Dig) derived from anti-digoxin 26-10 murine monoclonal antibody, wild type (WT), SEQ ID NO:132; format: binding; conditions: for kon: hapten-BSA conjugate immobilized on CM5 chip
Method: (§1) Single chain Fv mutants were produced and purified according to Burks (Burks and Iverson, 1995). The scFv genes from second round overlap extension PCR were ligated into pET25b plasmid and transformed into E. Coli BL21 (DE3) strain. Inclusion bodies that consist of scFvs were isolated from cell lysates and dissolved in 8 M urea. Soluble scFvs were purified by a metal chelating column (IMAC) and refolded by dialyzing against Tris buffer (50 mM Tris. HCl, pH 7.4, 500 mM KCl, 10% glycerol). Protein concentrations were determined by OD280 (Σ=44850) (Pace et al., 1995; Nieba et al., 1989). For the kinetics measurement, antibodies were further purified by a size exclusion gel filtration column Sepharose-75 (Pharmacia Biosensor AB, Sweden) to remove any dimeric or polymeric proteins.
(§2) The digoxin-BSA, digitoxin-BSA, digoxigenin-BSA and ouabain-BSA conjugates were immobilized on the surface of a sensor chip CM5 (approximately 400 RU) following the standard protocol from Pharmacia Biosensor. All kinetics experiments were performed in buffer containing 150 mM NaCl, 10 mM HEPES, 3.4 mM EDTA, and 0.005% P20, pH 7.4 at 25° C. with a flowrate of 60 μl/min (Myszka et al., 1997; Zeder-Lutz et al., 1997; Oddie et al., 1997). ScFv proteins over the concentration range of 25 nM to 400 nM were added to the chip for the association rate measurements. To prevent the rebinding of antibodies on the chip surface, soluble haptens (up to 1 mM) were added into elution buffer for the dissociation rate measurements (Schier et al., 1996). The antibody bound chip was regenerated by 50% ethylene glycol, pH 10. The values of association and dissociation rate of antibodies were calculated using BIAevaluation software from Pharmacia Biosensor. kon was determined from a plot of (ln(dR/dt))/t versus concentration (Karlson et al., 1991). koff was determined from a plot of ln(Ro/R) versus time.
(§3) In additional studies, values for the association and dissociation rate constants (kon and koff, respectively) were measured using a BIAcore 1000 for the wild-type and 14 selected mutant scFv antibodies. […] The selected scFv antibodies were expressed and purified following the procedure described by Burks and Iverson (1995). In each case, care was taken to insure that the kinetic values measured on the BlAcore are free of artifacts due to rebinding or avidity effects arising from multimeric scFvs.

[3] = system: anti-digoxin 26-10 scFv(Dig) variant LC94F (light chain residue 94→Phe); format: binding, murine; conditions: for kon: hapten-BSA conjugate immobilized on CM5 chip
Method: as §1, §2, §3

[4] = system: anti-digoxin 26-10 scFv(Dig) variant LC94Y (L:Val-94→Tyr); format: binding, murine; conditions: for kon: hapten-BSA conjugate immobilized on CM5 chip
Method: as §1, §2, §3

[5] = system: anti-digoxin 26-10 scFv(Dig) variant HC9ST (heavy chain mutant); format: binding, murine; conditions: for kon: hapten-BSA conjugate immobilized on CM5 chip
Method: as §1, §2, §3

[6] = system: anti-digoxin 26-10 scFv(Dig) variant HC100K (H:Trp-100→Lys); format: binding, murine; conditions: for kon: hapten-BSA conjugate immobilized on CM5 chip
Method: as §1, §2, §3

[7] = system: anti-digoxin 26-10 scFv(Dig) variant LC96F (L:Pro-96→Phe); format: binding, murine
Method: as §1, §2, §3

[8] = system: anti-digoxin 26-10 scFv(Dig) variant HC100H (H:Trp-100→His); format: binding, murine; conditions: for kon: hapten-BSA conjugate immobilized on CM5 chip
Method: as §1, §2, §3

[9] = system: anti-digoxin 26-10 scFv(Dig) variant HC50F (H:Tyr50→Phe); format: binding, murine; conditions: for kon: hapten-BSA conjugate immobilized on CM5 chip
Method: as §1, §2, §3

[10] = system: anti-digoxin 26-10 scFv(Dig) variant HC100R (H:Trp-100→Arg); format: binding, murine; conditions: for kon: hapten-BSA conjugate immobilized on CM5 chip
Method: as §1, §2, §3

[11] = SPR, hapten-BSA conjugate on chip, pH 7.4, 25° C.
[12] = SPR, hapten-BSA conjugate on chip, soluble hapten in elution buffer, pH 7.4, 25° C.

| Compound | Ka [1] | kon ([2]; SPR, pH 7.4, 25° C.) [M⁻¹ s⁻¹] | kon ([3]; SPR, pH 7.4, 25° C.) [M⁻¹ s⁻¹] | kon ([4]; SPR, pH 7.4, 25° C.) [M⁻¹ s⁻¹] | kon ([5]; SPR, pH 7.4, 25° C.) [M⁻¹ s⁻¹] | kon ([6]; SPR, pH 7.4, 25° C.) [M⁻¹ s⁻¹] | kon ([8]; SPR, pH 7.4, 25° C.) [M⁻¹ s⁻¹] | kon ([9]; SPR, pH 7.4, 25° C.) [M⁻¹ s⁻¹] | kon ([10]; SPR, pH 7.4, 25° C.) [M⁻¹ s⁻¹] | koff [2, 12] | koff [3, 12] | koff [4, 12] | Ka [5, 11] [M⁻¹] | koff [5, 12] | koff [6, 12] | koff [7, 12] | Ka [8, 11] [M⁻¹] | koff [8, 12] | koff [9, 12] | koff [10, 12] | other results |
| --- | --- | --- | --- | --- | --- | --- | --- | --- | --- | --- | --- | --- | --- | --- | --- | --- | --- | --- | --- | --- | --- |
| C[C@H]1O[C@@H](O[C@H]2[C@@H](O)C[C@H](O[C@H]3[C@@H](O)C[C@H](O[C@H]4CC[C@@]5(C)[C@H](CC[C@@H]6[C@@H]5C[C@@H](O)[C@]5(C)[C@@H](C7=CC(=O)OC7)CC[C@]65O)C4)O[C@@H]3C)O[C@@H]2C)C[C@H](O)[C@@H]1O [Digoxin, digoxin] | approximately 9×10^9 M^-1 | 1.2e+08 | 1.2e+06 | 1.2e+06 | 1.4e+06 | 940000 | 1e+06 | 1.5e+06 | 1.3e+06 | – | – | – | – | – | – | – | – | – | – | – | koff ([2]; pH 7.4): 7.0 × 10^-4; koff ([3]; pH 7.4): 1.9 × 10^-3; koff ([4]; pH 7.4): 5.2 × 10^-3; koff ([5]; pH 7.4): 5.4 × 10^-3; koff ([6]; pH 7.4): 8.0 × 10^-2; kon ([7]; SPR, hapten-BSA conjugate immobilized on CM5 chip, pH 7.4, 25° C.): 1e+08 M⁻¹ s⁻¹; Ka [7, 11]: 500000 M⁻¹; koff ([7]; pH 7.4): 2; koff ([8]; pH 7.4): 2.0 × 10^-3; koff ([9]; pH 7.4): 5.8 × 10^-4; koff ([10]; pH 7.4): 5.0 × 10^-3 |
| C[C@H]1O[C@@H](O[C@H]2[C@@H](O)C[C@H](O[C@H]3[C@@H](O)C[C@H](O[C@H]4CC[C@@]5(C)[C@H](CC[C@@H]6[C@@H]5CC[C@]5(C)[C@@H](C7=CC(=O)OC7)CC[C@]65O)C4)O[C@@H]3C)O[C@@H]2C)C[C@H](O)[C@@H]1O [Digitoxin, digitoxin] | approximately 9×10^9 M^-1 | 1e+06 | 1.3e+06 | 1.15e+06 | 1e+06 | – | – | 960000 | 930000 | 1.3 × 10^-3 | 1.3 × 10^-3 | 2.7 × 10^-3 | 9e+06 | 0.11 | 0.09 | 0.014 | 0 | 9.7 × 10^-3 | 1.7 × 10^-3 | 8.2 × 10^-3 | Ka [6, 11]: 0 M⁻¹; Ka [7, 11]: 8.4e+07 M⁻¹ |
| C[C@@H]1O[C@@H](O[C@H]2C[C@@H](O)[C@]3(CO)[C@H]4[C@H](O)C[C@]5(C)[C@@H](C6=CC(=O)OC6)CC[C@]5(O)[C@@H]4CC[C@]3(O)C2)[C@H](O)[C@H](O)[C@H]1O [Ouabain, ouabain] | – | 1e+06 | 1e+06 | 1e+06 | 100000 | – | 1e+06 | 1e+06 | 1e+06 | 1.5 × 10^-2 | 1.0 × 10^-2 | 1.7 × 10^-2 | 6.7e+06 | 0.12 | 0.60 | 0.3 | 1.1e+07 | 0.09 | 0.013 | 0.12 | fold lower affinity than for digoxin, digitoxin and digoxigenin [1]: 42 fold; Ka [9, 11]: 7.9e+07 M⁻¹; Ka [10, 11]: 8.3e+06 M⁻¹ |
| C[C@]12CC[C@H](O)C[C@H]1CC[C@@H]1[C@@H]2C[C@@H](O)[C@]2(C)[C@@H](C3=CC(=O)OC3)CC[C@]12O [digoxigenin] | approximately 9×10^9 M^-1 | – | – | – | – | – | – | – | – | – | – | – | – | – | – | – | – | – | – | – | – |
| C[C@]12CC[C@H](O)C[C@H]1CC[C@@H]1[C@@H]2CC[C@]2(C)[C@@H](C3=CC(=O)OC3)CC[C@]12O [Digitoxigenin] | – | 1e+06 | 1e+06 | 1.1e+06 | – | 1e+06 | 1e+06 | 1e+06 | – | 2.3 × 10^-2 | 8.9 × 10^-2 | 1.8 × 10^-1 | 7e+08 | 1.00 | 1.48 | 0.169 | 1e+08 | 9.7 × 10^-2 | 2.2 × 10^-2 | 1.7 × 10^-1 | Ka [9, 11]: 4.5e+08 M⁻¹; Ka [10, 11]: 4.2e+07 M⁻¹ |
